Values of other authors in patent US20060105068A1, “Dietary supplement formulations containing Hoodia gordonii” (priority 2003, published 2006).

Columns and labels:
[1] = system: cytochrome P450
[2] = rats
[3] = after fifteen weeks; 1200 calorie/day diet
[4] = United States; therapeutic range; aspirin and associated compounds

NC(Cc1cc(I)c(Oc2cc(I)c(O)c(I)c2)c(I)c1)C(=O)O (stereo not drawn) [throxine]
reduction in CYP450 ([1]; when throxine is increased): 60-80%

O=C(O[C@@H]1Cc2c(O)cc(O)cc2O[C@@H]1c1cc(O)c(O)c(O)c1)c1cc(O)c(O)c(O)c1 [epigallocatechin gallate]
loss of body weight [2]: up to 21% | decrease in appetite ([2]; after seven days of injections): 60%

CC(=O)OC1CC[C@@]2(C)C(=CC(=O)[C@@H]3[C@@H]2CC[C@]2(C)C(=O)CC[C@@H]32)C1 (stereo partly drawn) [Formula 7-Keto, 3-acetyl-7-oxo-dehydroepiandrosterone]
body weight, body mass index (BMI), and waist and hip circumference versus placebo (8-week treatment period): statistically significant reductions | tolerability / adverse events (8-week treatment period): well tolerated and no serious adverse events were reported | effect on testosterone levels (human, in vivo): does not increase testosterone levels

Naringinine [Naringinines]
effect on cytochrome P450 enzymes [1]: inhibit

CCN[C@@H](C)Cc1cccc(C(F)(F)F)c1 [dexfenfluramine]
weight lost [3]: 15.2+/−9.5 lbs

CC(=O)Oc1ccccc1C(=O)O [aspirin]
people who die each year [4]: 7,600
